Tests used:
[1] = system: mouse; settings: Subchronic oral toxicity in rodents, cd1, Feed, dose end: 13 week, group: systemic, systemic / clinical chemistry / alkaline phosphatase (alp/alk) / alkaline phosphatase (alp/alk) + systemic / in life observation / clinical …
[2] = system: dog; settings: Subchronic oral toxicity in nonrodent, beagle, Feed, dose end: 6 week, group: systemic, systemic / in life observation / body weight / body weight gain + systemic / clinical chemistry / alanine aminotransferase (alt/sgpt) / …
[3] = system: dog; settings: Chronic toxicity, beagle, Oral, Feed, dose end: 12 month, group: systemic
[4] = system: rat; settings: Subchronic oral toxicity in rodents, sprague dawley, Feed, dose end: 13 week, group: systemic
[5] = system: rat; settings: Multigenerational reproductive toxicity study, sprague dawley, Oral, Feed, dose end: 2 generation
[6] = system: mouse; settings: Subchronic oral toxicity in rodents, cd1, Feed, dose end: 6 week, group: systemic, systemic / in life observation / body weight / body weight gain + systemic / organ weight / liver / absolute + systemic / organ weight / …
[7] = system: mouse; settings: Carcinogenicity, cd1, Oral, Feed, dose end: 18 month, group: systemic
[8] = systemic / clinical chemistry / alanine aminotransferase (alt/sgpt) / alanine aminotransferase (alt/sgpt) + systemic / clinical chemistry / …
[9] = systemic / in life observation / clinical signs / moribundity
[10] = systemic / clinical chemistry / albumin-globulin ratio / albumin-globulin ratio + systemic / organ weight / liver / relative to body weight
[11] = systemic / in life observation / body weight / body weight + systemic / in life observation / body weight / body weight gain + systemic / in…
[12] = group: offspring, systemic / in life observation / body weight / offspring (pup) weight
[13] = group: offspring, systemic / in life observation / body weight / offspring (pup) weight + systemic / organ weight / liver / relative to body weight
[14] = group: parental, systemic / in life observation / body weight / body weight
[15] = systemic / in life observation / body weight / body weight + systemic / in life observation / body weight / body weight gain

With `O=C(O)C1(C(=O)Nc2ccc(Cl)cc2Cl)CC1` [Cyclanilide] as the molecule, how does the LEL [1] read?
The LEL was 364 mg/kg/day.

And the LOAEL [1]?
The LOAEL was 364 mg/kg/day.

What about the NEL [1] of the same molecule?
The NEL was 38 mg/kg/day.

And the NOAEL [1]?
Its NOAEL is 38 mg/kg/day.

And the LOAEL [2]?
The LOAEL was over 20 mg/kg/day.

What about the NOAEL [2] of the same molecule?
Its NOAEL is at least 20 mg/kg/day.

What about the LOAEL [3, 8] of the same molecule?
The LOAEL was 21.2 mg/kg/day.

What about the NOAEL [3, 8] of the same molecule?
The NOAEL was 5.3 mg/kg/day.

And the LEL [3, 9]?
Its LEL is 1.3 mg/kg/day.

And the NEL [3, 9]?
Its NEL is under 1.3 mg/kg/day.

And the LEL [4, 10]?
Its LEL is 32.1 mg/kg/day.

And the NEL [4, 10]?
Its NEL is under 32.1 mg/kg/day.

What about the LOAEL [4, 11] of the same molecule?
The LOAEL was 113 mg/kg/day.

And the NOAEL [4, 11]?
The NOAEL was 54.6 mg/kg/day.

And the LEL [5, 12]?
Its LEL is 20.2 mg/kg/day.

What about the LOAEL [5, 12] of the same molecule?
Its LOAEL is 20.2 mg/kg/day.

And the NEL [5, 13]?
Its NEL is 2 mg/kg/day.

And the NOAEL [5, 13]?
Its NOAEL is 2 mg/kg/day.

And the LEL [5, 14]?
Its LEL is 2 mg/kg/day.

And the LOAEL [5, 14]?
The LOAEL was 2 mg/kg/day.

What about the NEL [5, 14] of the same molecule?
Its NEL is under 2 mg/kg/day.

And the NOAEL [5, 14]?
Its NOAEL is under 2 mg/kg/day.

And the LEL [6]?
Its LEL is 552 mg/kg/day.

What about the LOAEL [6] of the same molecule?
Its LOAEL is 552 mg/kg/day.

What about the NEL [6] of the same molecule?
The NEL was 192 mg/kg/day.

What about the NOAEL [6] of the same molecule?
The NOAEL was 192 mg/kg/day.

And the LEL [7, 15]?
The LEL was 8.41 mg/kg/day.

And the LOAEL [7, 15]?
Its LOAEL is 168 mg/kg/day.

What about the NEL [7, 15] of the same molecule?
Its NEL is under 8.41 mg/kg/day.

What about the NOAEL ([7]; systemic / in life observation / body weight / body weight + systemic / in life observation / body weight / body weight gain + systemic / …) of the same molecule?
The NOAEL was 41.8 mg/kg/day.

From EPA's ToxRefDB 2
